# In US10221177B2 (HYDRA BIOSCIENCES, INC., priority 2014, dated 2019):
# Molecular target: human TRPA1 (Homo sapiens (Human), UniProt O75762)
# Test: In vitro inhibition of human TRPA1, whole cell patch configuration
# Assay type: cell-based
# Details: current activation 10 μM AITC, tested concentrations 320 pM to 3.2 μM, read-out: hTRPA1 IC50
# Method in brief: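 Whole-cell patch clamp, bath 150 mM NaCl, 10 mM HEPES, 1 mM EGTA, 3 mM MgCl2, pH 7.4 (sometimes 2 mM CaCl2, 1 mM MgCl2). Currents recorded continuously at −60 mV or by 400 ms ramps from −40 mV holding every 4 s; inward/outward currents taken at −80/80 mV, with controlled-temperature focal perfusion.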
# human TRPA1, sequence (O75762 whole entry): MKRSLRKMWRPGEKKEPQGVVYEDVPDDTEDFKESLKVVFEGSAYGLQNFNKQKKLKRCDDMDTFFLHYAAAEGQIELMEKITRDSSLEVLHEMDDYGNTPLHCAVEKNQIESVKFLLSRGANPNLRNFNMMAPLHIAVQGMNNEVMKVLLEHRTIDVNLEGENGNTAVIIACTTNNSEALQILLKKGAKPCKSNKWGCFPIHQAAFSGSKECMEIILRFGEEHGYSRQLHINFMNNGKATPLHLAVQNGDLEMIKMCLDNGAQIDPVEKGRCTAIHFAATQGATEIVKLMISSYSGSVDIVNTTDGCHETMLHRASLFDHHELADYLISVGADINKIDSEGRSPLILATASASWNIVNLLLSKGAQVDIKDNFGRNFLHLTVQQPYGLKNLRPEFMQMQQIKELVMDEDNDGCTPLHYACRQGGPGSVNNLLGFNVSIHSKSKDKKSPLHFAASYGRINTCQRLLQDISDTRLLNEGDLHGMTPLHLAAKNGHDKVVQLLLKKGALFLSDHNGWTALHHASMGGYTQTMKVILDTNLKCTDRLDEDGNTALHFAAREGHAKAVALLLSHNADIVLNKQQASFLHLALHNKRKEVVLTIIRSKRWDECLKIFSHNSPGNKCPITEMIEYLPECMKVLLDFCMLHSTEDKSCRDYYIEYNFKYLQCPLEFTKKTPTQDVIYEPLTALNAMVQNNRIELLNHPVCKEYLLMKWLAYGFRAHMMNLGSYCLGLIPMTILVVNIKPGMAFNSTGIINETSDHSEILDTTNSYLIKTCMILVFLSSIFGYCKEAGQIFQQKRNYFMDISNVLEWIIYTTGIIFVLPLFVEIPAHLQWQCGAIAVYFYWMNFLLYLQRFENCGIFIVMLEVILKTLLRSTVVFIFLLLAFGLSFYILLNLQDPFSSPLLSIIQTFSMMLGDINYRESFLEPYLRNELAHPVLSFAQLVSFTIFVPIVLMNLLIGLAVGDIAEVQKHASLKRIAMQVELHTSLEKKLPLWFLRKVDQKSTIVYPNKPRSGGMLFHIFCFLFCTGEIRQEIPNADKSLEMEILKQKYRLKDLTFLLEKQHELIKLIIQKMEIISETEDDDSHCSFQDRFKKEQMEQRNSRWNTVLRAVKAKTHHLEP
row,Compound,IC50 [nM]
1,"COCC(=O)Cn1c(=O)c2c(ncn2[C@@H](C)C(=O)Nc2csc(-c3cnc(N4CC5CC5C4)cn3)n2)n(C)c1=O (stereo partly drawn) [Compound 264, (2S)—N-(2-(5-(3-azabicyclo[3.1.0]hexan-3-yl)pyrazin-2-yl)thiazol-4-yl)-2-(1-(3-methoxy-2-oxopropyl)-3-methyl-2,6-dioxo-2,3-dihydro-1H-purin-7(6H)-yl)propanamide]",31
2,"COCC(=O)Cn1c(=O)c2c(ncn2[C@@H](C)C(=O)Nc2csc(-c3cnc(N4CC5C(C4)C5(F)F)nc3)n2)n(C)c1=O (stereo partly drawn) [Compound 265, (2S)—N-(2-(2-(6,6-difluoro-3-azabicyclo[3.1.0]hexan-3-yl)pyrimidin-5-yl)thiazol-4-yl)-2-(1-(3-methoxy-2-oxopropyl)-3-methyl-2,6-dioxo-2,3-dihydro-1H-purin-7(6H)-yl)propanamide]",3
3,"CCOc1ncc(-c2cccc(NC(=O)[C@H](C)n3cnc4c3c(=O)n(Cc3cc(C)on3)c(=O)n4C)n2)cc1C(F)(F)F [Compound 122, (S)—N-(6′-ethoxy-5′-(trifluoromethyl)-[2,3′-bipyridin]-6-yl)-2-(3-methyl-1-((5-methylisoxazol-3-yl)methyl)-2,6-dioxo-2,3-dihydro-1H-purin-7(6H)-yl)propanamide]",1
4,"COCC(=O)Cn1c(=O)c2c(ncn2[C@@H](C)C(=O)Nc2csc(-c3ccc(N4CC5C(C4)C5(F)F)nc3)n2)n(C)c1=O (stereo partly drawn) [Compound 269, (2S)—N-(2-(6-(6,6-difluoro-3-azabicyclo[3.1.0]hexan-3-yl)pyridin-3-yl)thiazol-4-yl)-2-(1-(3-methoxy-2-oxopropyl)-3-methyl-2,6-dioxo-2,3-dihydro-1H-purin-7(6H)-yl)propanamide]",4
5,"CCC(=O)Cn1c(=O)c2c(ncn2[C@@H](C)C(=O)Nc2cccc(-c3ccc(N4CC5CC5C4)nc3)n2)n(C)c1=O (stereo partly drawn) [Compound 37, (2S)—N-(6′-(3-azabicyclo[3.1.0]hexan-3-yl)-2,3′-bipyridin-6-yl)-2-(3-methyl-2,6-dioxo-1-(2-oxobutyl)-2,3-dihydro-1H-purin-7(6H)-yl)propanamide]",3
6,"COCC(=O)Cn1c(=O)c2c(ncn2[C@@H](C)C(=O)Nc2cccc(-c3cnc(N4CC5CC5C4)nc3)n2)n(C)c1=O (stereo partly drawn) [Compound 165, (2S)—N-(6-(2-(3-azabicyclo[3.1.0]hexan-3-yl)pyrimidin-5-yl)pyridin-2-yl)-2-(1-(3-methoxy-2-oxopropyl)-3-methyl-2,6-dioxo-2,3-dihydro-1H-purin-7(6H)-yl)propanamide]",7
7,"CC(=O)Cn1c(=O)c2c(ncn2CC(=O)Nc2cccc(-c3ccc(Cl)cc3)n2)n(C)c1=O [Compound 181, N-(6-(4-chlorophenyl)pyridin-2-yl)-2-(3-methyl-2,6-dioxo-1-(2-oxopropyl)-1,2,3,6-tetrahydropurin-7-yl)acetamide]",19
8,"Cc1nc2c(c(=O)n(Cc3ccccn3)c(=O)n2C)n1CC(=O)Nc1cccc(-c2cnc(C(F)(F)F)nc2)n1 [Compound 177, 2-(3,8-dimethyl-2,6-dioxo-1-(pyridin-2-ylmethyl)-2,3-dihydro-1H-purin-7(6H)-yl)-N-(6-(2-(trifluoromethyl)pyrimidin-5-yl)pyridin-2-yl)acetamide]",42
9,"Cc1cc(Cn2c(=O)c3c(ncn3[C@@H](C)C(=O)Nc3cncc(-c4cnc(C)c(Cl)c4)n3)n(C)c2=O)no1 [Compound 139, (S)—N-(6-(5-chloro-6-methylpyridin-3-yl)pyrazin-2-yl)-2-(3-methyl-1-((5-methylisoxazol-3-yl)methyl)-2,6-dioxo-2,3-dihydro-1H-purin-7(6H)-yl)propanamide]",11
10,"CC(=O)Cn1c(=O)c2c(ncn2CC(=O)Nc2cccc(-c3cnc(C(F)(F)F)c(C)c3)n2)n(C)c1=O [Compound 227, 2-(3-methyl-2,6-dioxo-1-(2-oxopropyl)-2,3-dihydro-1H-purin-7(6H)-yl)-N-(5′-methyl-6′-(trifluoromethyl)-[2,3′-bipyridin]-6-yl)acetamide]",22
11,"C[C@@H](C(=O)Nc1cccc(-c2ccc(C(F)(F)F)nc2)n1)n1cnc2c1c(=O)n(Cc1ccon1)c(=O)n2C [Compound 95, (S)-2-(1-(isoxazol-3-ylmethyl)-3-methyl-2,6-dioxo-2,3-dihydro-1H-purin-7(6H)-yl)-N-(6′-(trifluoromethyl)-[2,3′-bipyridin]-6-yl)propanamide]",9
12,"Cc1noc(Cn2c(=O)c3c(ncn3[C@@H](C)C(=O)Nc3ccnc(-c4cnc(C(F)(F)F)c(C)c4)n3)n(C)c2=O)n1 [Compound 150, (S)-2-(3-methyl-1-((3-methyl-1,2,4-oxadiazol-5-yl)methyl)-2,6-dioxo-2,3-dihydro-1H-purin-7(6H)-yl)-N-(2-(5-methyl-6-(trifluoromethyl)pyridin-3-yl)pyrimidin-4-yl)propanamide]",4
13,"C[C@@H](C(=O)Nc1csc(-c2ccc(N3CC4CC4C3)nc2)n1)n1cnc2c1c(=O)n(CC#N)c(=O)n2C (stereo partly drawn) [Compound 66, (2S)—N-(2-(6-(3-azabicyclo[3.1.0]hexan-3-yl)pyridin-3-yl)thiazol-4-yl)-2-(1-(cyanomethyl)-3-methyl-2,6-dioxo-2,3-dihydro-1H-purin-7(6H)-yl)propanamide]",2
14,CCC(=O)Cn1c(=O)c2c(ncn2[C@@H](C)C(=O)Nc2csc(-c3ccc(N4CC5CC5C4)nc3)n2)n(C)c1=O (stereo partly shown) [Compound 33],1
15,"Cc1cc(Cn2c(=O)c3c(ncn3CC(=O)Nc3ccc(C#N)c(C(F)(F)F)n3)n(C)c2=O)no1 [Compound 201, N-(5-cyano-6-(trifluoromethyl)pyridin-2-yl)-2-(3-methyl-1-((5-methylisoxazol-3-yl)methyl)-2,6-dioxo-2,3-dihydro-1H-purin-7(6H)-yl)acetamide]",309
16,"CC(=O)Cn1c(=O)c2c(ncn2[C@@H](C)C(=O)Nc2cncc(-c3ccc(C(F)(F)F)nc3)n2)n(C)c1=O [Compound 3, (S)-2-(3-methyl-2,6-dioxo-1-(2-oxopropyl)-2,3-dihydro-1H-purin-7(6H)-yl)-N-(6-(6-(trifluoromethyl)pyridin-3-yl)pyrazin-2-yl)propanamide]",49
17,"CCC(=O)Cn1c(=O)c2c(ncn2[C@@H](C)C(=O)Nc2cncc(-c3cnc(N4CC5CC5C4)cn3)n2)n(C)c1=O (stereo partly drawn) [Compound 158, (2S)—N-(5′-(3-azabicyclo[3.1.0]hexan-3-yl)-[2,2′-bipyrazin]-6-yl)-2-(3-methyl-2,6-dioxo-1-(2-oxobutyl)-2,3-dihydro-1H-purin-7(6H)-yl)propanamide]",6
18,"CCC(=O)Cn1c(=O)c2c(ncn2[C@@H](C)C(=O)Nc2cncc(-c3cnc(N4CC5C(C4)C5(F)F)cn3)n2)n(C)c1=O (stereo partly drawn) [Compound 159, (2S)—N-(5′-(6,6-difluoro-3-azabicyclo[3.1.0]hexan-3-yl)-[2,2′-bipyrazin]-6-yl)-2-(3-methyl-2,6-dioxo-1-(2-oxobutyl)-2,3-dihydro-1H-purin-7(6H)-yl)propanamide]",6
19,"CC#CCn1c(=O)c2c(ncn2[C@@H](C)C(=O)Nc2csc(-c3cnc(N4CC5C(C4)C5(F)F)nc3)n2)n(C)c1=O (stereo partly drawn) [Compound 267, (2S)-2-(1-(but-2-ynyl)-3-methyl-2,6-dioxo-2,3-dihydro-1H-purin-7(6H)-yl)-N-(2-(2-(6,6-difluoro-3-azabicyclo[3.1.0]hexan-3-yl)pyrimidin-5-yl)thiazol-4-yl)propanamide]",2
20,"CC(=O)Cn1c(=O)c2c(ncn2CC(=O)Nc2cccc(-c3cnc(C(F)(F)F)nc3)n2)n(C)c1=O [Compound 185, 2-(3-methyl-2,6-dioxo-1-(2-oxopropyl)-2,3-dihydro-1H-purin-7(6H)-yl)-N-(6-(2-(trifluoromethyl)pyrimidin-5-yl)pyridin-2-yl)acetamide]",45
21,"Cc1cc(Cn2c(=O)c3c(ncn3[C@@H](C)C(=O)Nc3cncc(-c4cnc(C)c(C(F)(F)F)c4)n3)n(C)c2=O)no1 [Compound 128, (S)-2-(3-methyl-1-((5-methylisoxazol-3-yl)methyl)-2,6-dioxo-2,3-dihydro-1H-purin-7(6H)-yl)-N-(6-(6-methyl-5-(trifluoromethyl)pyridin-3-yl)pyrazin-2-yl)propanamide]",4
22,"Cc1cc(Cn2c(=O)c3c(ncn3[C@@H](C)C(=O)Nc3cncc(-c4cnc(C(F)(F)F)c(C)c4)n3)n(C)c2=O)no1 [Compound 130, (S)-2-(3-methyl-1-((5-methylisoxazol-3-yl)methyl)-2,6-dioxo-2,3-dihydro-1H-purin-7(6H)-yl)-N-(6-(5-methyl-6-(trifluoromethyl)pyridin-3-yl)pyrazin-2-yl)propanamide]",8
23,"CC(O)Cn1c(=O)c2c(ncn2CC(=O)Nc2cccc(-c3cnc(N4CCC[C@H]4C(F)(F)F)nc3)n2)n(C)c1=O (stereo partly drawn) [Compound 184, 2-(1-(2-hydroxypropyl)-3-methyl-2,6-dioxo-1,2,3,6-tetrahydropurin-7-yl)-N-(6-(2-((S)-2-(trifluoromethyl)pyrrolidin-1-yl)pyrimidin-5-yl)pyridin-2-yl)acetamide]",310
24,"C[C@@H](C(=O)Nc1cccc(-c2cnc(N3CCC[C@@H]3C(F)(F)F)nc2)n1)n1cnc2c1c(=O)n(CC#N)c(=O)n2C [Compound 39, (S)-2-(1-(cyanomethyl)-3-methyl-2,6-dioxo-2,3-dihydro-1H-purin-7(6H)-yl)-N-(6-(2-((R)-2-(trifluoromethyl)pyrrolidin-1-yl)pyrimidin-5-yl)pyridin-2-yl)propanamide]",3
25,"C[C@@H](C(=O)Nc1ccnc(-c2cnc(N3CCC[C@@H]3C(F)(F)F)nc2)n1)n1cnc2c1c(=O)n(CC#N)c(=O)n2C [Compound 49, (S)-2-(1-(cyanomethyl)-3-methyl-2,6-dioxo-2,3-dihydro-1H-purin-7(6H)-yl)-N-(2′-((R)-2-(trifluoromethyl)pyrrolidin-1-yl)-2,5′-bipyrimidin-4-yl)propanamide]",7
